In the assay the test system is GUMC-403. Nature of the assay: viability at highest tested concentration (max response) relative to DMSO (% of DMSO control); higher = less cytotoxic. As to conditions: library / dose series: MIPE library, 11-point 1:3 dilution, 48 h. In short, it runs like this:
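The value is viability at the highest tested concentration, expressed relative to vehicle control. Patient-derived GUMC-403 papilloma cells, grown by conditional reprogramming, were seeded at 700/well in 5 μL F + Y medium in 1536-well plates. After an overnight incubation at 37 °C, they received 23 nL of compound by pin tool for 48 h. Readout was CellTiter-Glo luminescence on a ViewLux, normalised to vehicle wells (100%) and empty wells (0%).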

Turning to `COC(=O)N1CCN(Cc2cccc(NC(=O)Nc3ccc(C)nc3)c2F)CC1`, under “top concentration 46.1 µM”, the viability stood at 105. In the case of `Nc1n[nH]c2nnc(-c3c(-c4ccccc4)nn4ccccc34)cc12`, the viability (top concentration 46.1 µM) was 88.7. `C[C@@H]1C(=O)O[C@H]2CC34[C@H]5C[C@@H](C(C)(C)C)C36[C@@H](OC(=O)[C@@H]6O)O[C@@]4(C(=O)O5)[C@]21O` (some centres undefined) yielded a viability (top concentration 46.1 µM) of 101. Under “top concentration 46.1 µM”, `O=C(O)c1ccc(-c2c[nH]c3ncc(-c4ccccc4)cc23)cc1C1CCCC1` gave a viability of 145. In turn, `Cc1cc2c(F)c(Oc3ncnn4cc(OC[C@@H](C)O)c(C)c34)ccc2[nH]1` showed a viability (top concentration 46.1 µM) of 118. Same read-out and setting: the same measure for `O=C(O)c1cc(/N=N/c2ccc([S+](=O)([O-])Nc3ccccn3)cc2)ccc1O`: 121. With `Nc1nc(F)nc2c1ncn2[C@@H]1O[C@H](COP(=O)(O)O)[C@@H](O)[C@@H]1O`, where the note is “top concentration 46.1 µM”, the viability came to 101. For `CC(C)OC(=O)CCC/C=C\C[C@@H]1[C@@H](/C=C/[C@@H](O)COc2cccc(C(F)(F)F)c2)[C@H](O)C[C@@H]1O`, the viability (top concentration 46.1 µM) worked out at 118. On the same count and under the same terms, under `CNC(=O)c1cc(Oc2ccc(NC(=O)Nc3cc(C(C)(C)C)nn3-c3ccc4ncccc4c3)c(F)c2)ccn1` stands 83.8; under `COc1c(C)c2c(c(O)c1C/C=C(\C)CCC(=O)OCCN1CCOCC1)C(=O)OC2`, 112. Same read-out and setting: under `c1ccc2c(CN3CCNCC3)cccc2c1` stands 122; under `O=C(O)c1ccc(O)c2ncc(N3CCOCC3)cc12`, 96; under `CCOc1ccc(Cc2cc([C@@H]3O[C@H](CO)[C@@H](O)[C@H](O)[C@H]3O)ccc2Cl)cc1`, 130. For the setting “top concentration 92.2 µM”, `Nc1cccc2c1CN([C@H]1CCC(=O)NC1=O)C2=O` registered a viability of 106. `O=C(c1ccc(/C=C/c2n[nH]c3ccccc23)cc1)N1CCNCC1`: for the setting “top concentration 46.1 µM”, the viability was 86.5.

`CNC1CCC(N(Cc2cccc(-c3ccncc3)c2)C(=O)c2sc3ccccc3c2Cl)CC1` (centres undefined) registered a viability (top concentration 46.1 µM) of 110. Turning to `CC(C)NCC(O)COc1ccc(CCOCC2CC2)cc1` (centres undefined), under “top concentration 46.1 µM”, the viability worked out at 117. For the molecule `C[C@@H]1C(=O)OC2[C@H](O)[C@]34[C@H]5C[C@@H](C(C)(C)C)[C@]36[C@@H](OC(=O)[C@@H]6O)O[C@@]4(C(=O)O5)[C@]21O` (some centres undefined), the viability (top concentration 46.1 µM) was determined as 108. Where the note is “top concentration 46.1 µM”, `OC1=CC=C(C=C1)\C2=C\OC3=C(C=CC(=C3)O)C2=O` came in with a viability of 133.

`COc1cc2cc(c1Cl)N(C)C(=O)C[C@H](OC(=O)C(C)C)[C@]1(C)O[C@@H]1[C@H](C)[C@@H]1C[C@@](O)(NC(=O)O1)[C@H](OC)/C=C/C=C(\C)C2` came in with a viability (top concentration 46.1 µM) of 122. The same measure, in the same setting: under `C#Cc1cccc(Nc2ncnc3cc(OC)c(OCCCCCCC(=O)NO)cc23)c1` stands 33.9; under `Cc1c(C)n(Cc2ccc(-c3ccccc3C(=O)O)cc2)c2ccc(C(=O)N[C@@H](C)c3ccc([N+](=O)[O-])cc3)cc12`, 102. Turning to `CCn1c(-c2nonc2N)nc2cncc(CNC3CCNCC3)c21`, where the note is “top concentration 46.1 µM”, the viability was determined as 121. Still for that read-out and setting: under `CC(C)n1cnc2c(NCCCCCCNC(=O)OC(C)(C)C)nc(NCCO)nc21` stands 107; under `O=C(O)CCNc1cc(N2CCc3ccccc3CC2)nc(-c2ccccn2)n1`, 125. On the same count and under the same terms, the same measure for `OC1=CC=C(C=C1)\C2=C(O)\C(=O)C3=C(O2)C=C(O)C=C3O`: 160. For the setting “top concentration 46.1 µM”, `CC(CCc1ccc(O)cc1)NCCc1ccc(O)c(O)c1` (centres undefined) had a viability of 105.

As to `C[C@]12CC[C@H]3[C@@H](CC[C@@]45O[C@@H]4C(O)=C(C#N)C[C@]35C)[C@@H]1CC[C@@H]2O`, under “top concentration 46.1 µM”, the viability was found to be 124. `O=c1oc2cc(O)ccc2s1`: the viability (top concentration 46.1 µM) amounted to 102.

`CC(c1cc2ccccc2s1)N(O)C(N)=O` (centres undefined) displayed a viability (top concentration 46.1 µM) of 96.7. `Cc1cccc(Nc2nc(-c3ccncc3)cs2)c1` came in with a viability (top concentration 46.1 µM) of 109. Consider `C[C@@H](O)[C@@H]1[C@H]2[C@@H](C)\C(=C(/N2C1=O)C(=O)OCOC(=O)C(C)(C)C)SC3CN(C3)/C4=N/CCS4`, for which the viability (top concentration 46.1 µM) came to 78.1.

With `CCCC1=NC(=C2[N]1NC(=N\C2=O)/C3=CC(=CC=C3OCC)[S+]([O-])(=O)N4CCN(CC)CC4)C`, the viability (top concentration 46.1 µM) is 102. On to `C/C(=C\c1csc(C)n1)[C@@H]1C[C@@H]2O[C@@H]2CCC[C@H](C)[C@H](O)[C@@H](C)C(=O)C(C)(C)[C@@H](O)CC(=O)O1`, for which the viability (top concentration 46.1 µM) worked out at 114. On to `CCN(c1ccccc1)c1cc(NC)[n+](C)c(C)n1`, for which the viability (top concentration 46.1 µM) is 115. The same measure, in the same setting: the same measure for `OC[C@H]1O[C@@H](Oc2ccc(O)cc2)[C@H](O)[C@@H](O)[C@@H]1O`: 99.9; for `CO[C@@H]1[C@@H](OC(N)=O)[C@@H](O)[C@H](OC2=CC=C3\C(=C(NC(=O)C4=CC=C([O-])C(=C4)CC=C(C)C)/C(=O)OC3=C2C)O)OC1(C)C`: 108.

In the case of `COc1cc(F)c(C(C)C)cc1-c1ccc(C(F)(F)F)cc1CN1C(=O)O[C@H](c2cc(C(F)(F)F)cc(C(F)(F)F)c2)[C@@H]1C`, where the note is “top concentration 46.1 µM”, the viability was 100. In turn, `NNc1nncc2ccccc12` had a viability (top concentration 46.1 µM) of 117. On the same count and under the same terms, the same measure for `CCCCCCCCOc1ccccc1C(=O)Nc1ccc(C(=O)OCC[N+](C)(CC)CC)cc1`: 104; for `CCCC(C)(COC(N)=O)COC(=O)NC(C)C` (centres undefined): 117; for `CCOC(=O)[C@@H](N)Cc1ccc(-c2cc(O[C@H](c3ccc(Cl)cc3-n3ccc(C)n3)C(F)(F)F)nc(N)n2)cc1.O=C(O)CNC(=O)c1ccccc1`: 117. On the same count and under the same terms, the same measure for `O=C(O)Cn1nnc(-c2cc(N3CCC(Oc4cc(F)ccc4Br)CC3)no2)n1`: 128. Turning to `C[C@]1(O)CC(C1)C2=NC(=C3[N]2C=CN=C3N)C4=CC5=C(C=C4)C=CC(=N5)C6=CC=CC=C6` (centres undefined), the viability (top concentration 46.1 µM) turned out to be 86.4. On the same count and under the same terms, the same measure for `N#Cc1c(N(CC(=O)[O-])CC(=O)[O-])sc(C(=O)[O-])c1CC(=O)[O-].O.O.O.O.O.O.O.[Sr+2].[Sr+2]`: 112. The molecule `CCN(CC)CCCCNc1ncc2c(n1)N(C)C(=O)N(c1c(Cl)c(OC)cc(OC)c1Cl)C2` registered a viability (top concentration 46.1 µM) of 99.8. Molecule `Nc1ccc([S+](=O)([O-])Nc2ccccn2)cc1` gave a viability (top concentration 46.1 µM) of 115. On the same count and under the same terms, the same measure for `COCC1(CO)C(=O)C2CCN1CC2` (centres undefined): 108; for `CCC(=O)NC[C@H](Cc1ccc(OCCc2nc(-c3ccccc3)oc2C)cc1)N/C(C)=C\C(=O)c1ccc(C(F)(F)F)cc1`: 109; for `O=[S+]([O-])(O)c1ccc2cc(/N=N/c3cc([S+](=O)([O-])O)c4cccnc4c3O)ccc2c1`: 126. Consider `C[C@@H]1C/C=C/C=C/C=C/C=C/[C@@H](O[C@@H]2O[C@H](C)[C@@H](O)[C@H](N)[C@@H]2O)C[C@@H]2O[C@](O)(C[C@@H](O)C[C@@H]3O[C@H]3/C=C/C(=O)O1)C[C@H](O)[C@H]2C(=O)O`, for which the viability (top concentration 46.1 µM) came to 104. On the same count and under the same terms, the same measure for `[O-]C(=O)C1=C(C(=C(Cl)C(=C1Cl)Cl)Cl)C/2=C/3\C=C(I)/C(=O)/C(=C3OC4=C2C=C(I)C(=C4I)[O-])I`: 82; for `CC1(C)OC2CC3C4CC(F)C/5=C/C(=O)/C=C\C5(C)C4C(O)CC3(C)[C@@]2(O1)C(=O)CO` (some centres undefined): 148; for `C/C=C(/C(=C/C)c1ccc(O)cc1)c1ccc(O)cc1`: 89.2.
